{"source": "patent US20170318812A1", "about": "“Plant and Crop Growth Regulating/Biostimulant Formulations and Methods of Use” (Arysta Lifescience North America, LLC, priority 2014, published 2017)", "system": "TRZAX Triticum aestivum (Soft wheat)", "experiment": "Ipfencarbazone biostimulant effect, early post emergence foliar application, greenhouse pots, plant height: wheat", "format": "in vivo", "conditions": "for HEIGHT, percent of untreated check (APoC) / HEIGHT, treatment mean: TRZAX BRS327", "text": "The original objective of this Example was to evaluate the herbicidal effect of ipfencarbazone when applied as a post emergent treatment to a range of selected crops and weeds. Unexpectedly, crop plant growth stimulation was observed. The actual species of weeds and crops are listed in the summary data tabulated below and in FIGS. 1-13. By convention each plant species has a Bayer code (5-letter name) with the scientific name for the plant referenced in FIGS. 1-13. In each Figure, each tray contains the same configuration of weeds and/or crops. In each Figure there is one replication of each treatment (six treatments in total). The top three photographs in each Figure show the Bayer Codes and bottom three photographs are aligned with the top three facilitating viewing of the same plant species. Throughout the Examples various abbreviations as conventional shorthand notation and will be appreciated by those skilled in the art. Some exemplary abbreviations include, “CV”=Co-efficient of Variation,” “LSD”=Least Significant Difference” (G/L (gram per L) AND GA/L (gram of active ingredient per L); “SC”=suspension concentrate formulation. The diluent in all treatments was water. By convention factors that are identical in all treatments (e.g. diluent and surfactant) are not listed in each treatment.\nMethods: The indicated size pots (see Tables below) are filled with a specific soil, the soil properties being indicated below. The referenced crops and weeds are planted by hand in each pot. […] The experiments include six treatments each replicated three times on each crop/weed species. At a specific time after emergence each crop and weed species was treated with ipfencarbazone plus a non-ionic surfactant (NIS). In the present Example, the surfactant employed was ENERGIC™ (non-ionic surfactant). The application timing is indicated in each of the Tables (1 or 2 leaf stage) below. Ipfencarbazone plus surfactant was diluted in water and applied at a rate equivalent to about 250 L/ha. Ipfencarbazone was applied using a track sprayer. After treatment, the pots were randomized in a greenhouse. At each assessment (indicated by “days after treatment” or DAT) the height of each plant was measured. The letters next to each mean indicate the level of statistical significance.\nReplications: 3, Untreated treatments: 1, Design: Randomized Complete Block (RCB), Treatment units: Treated ‘Plot’ experimental unit size, Dry Form. Unit: %, Treated ‘Plot’ experimental unit size Width: 1 meter, Treated ‘Plot’ experimental unit size Length: 1.4 meters, Application volume: 250 L/ha, Mix size: 0.15 liters, […]", "key": {"[1]": {"conditions": "Soft wheat BRS327, 15 DA-A, 62.5 g ai/ha + Energic NIS 0.2 % v/v"}, "[2]": {"conditions": "Soft wheat BRS327, 15 DA-A, 250 g ai/ha + Energic NIS 0.2 % v/v"}, "[3]": {"conditions": "Soft wheat BRS327, 15 DA-A, 1000 g ai/ha + Energic NIS 0.2 % v/v"}, "[4]": {"conditions": "Soft wheat BRS327, 28 DA-A, 62.5 g ai/ha + Energic NIS 0.2 % v/v"}, "[5]": {"conditions": "Soft wheat BRS327, 28 DA-A, 125 g ai/ha + Energic NIS 0.2 % v/v"}, "[6]": {"conditions": "Soft wheat BRS327, 28 DA-A, 250 g ai/ha + Energic NIS 0.2 % v/v"}, "[7]": {"conditions": "Soft wheat Iguaçú, 15 DA-A, 62.5 g ai/ha + Energic NIS 0.2 % v/v"}, "[8]": {"conditions": "Soft wheat Iguaçú, 15 DA-A, 250 g ai/ha + Energic NIS 0.2 % v/v"}, "[9]": {"conditions": "Soft wheat Iguaçú, 15 DA-A, 500 g ai/ha + Energic NIS 0.2 % v/v"}, "[10]": {"conditions": "Soft wheat Iguaçú, 15 DA-A, 1000 g ai/ha + Energic NIS 0.2 % v/v"}, "[11]": {"conditions": "Soft wheat Iguaçú, 28 DA-A, 62.5 g ai/ha + Energic NIS 0.2 % v/v"}, "[12]": {"conditions": "Soft wheat Iguaçú, 28 DA-A, 125 g ai/ha + Energic NIS 0.2 % v/v"}, "[13]": {"conditions": "Soft wheat Iguaçú, 28 DA-A, 250 g ai/ha + Energic NIS 0.2 % v/v"}, "[14]": {"conditions": "Soft wheat Iguaçú, 28 DA-A, 500 g ai/ha + Energic NIS 0.2 % v/v"}, "[15]": {"conditions": "Soft wheat Itaipú, 15 DA-A, 125 g ai/ha + Energic NIS 0.2 % v/v"}, "[16]": {"conditions": "Soft wheat Itaipú, 15 DA-A, 250 g ai/ha + Energic NIS 0.2 % v/v"}, "[17]": {"conditions": "Soft wheat Itaipú, 15 DA-A, 1000 g ai/ha + Energic NIS 0.2 % v/v"}, "[18]": {"conditions": "Soft wheat Itaipú, 28 DA-A, 125 g ai/ha + Energic NIS 0.2 % v/v"}, "[19]": {"conditions": "Soft wheat Itaipú, 28 DA-A, 250 g ai/ha + Energic NIS 0.2 % v/v"}}, "note": "“And” between values parts separate entries of the source, which are not always exact repeats. Equal values may be shown once."}
{"compound": "CC(C)N(C(=O)n1cnn(-c2ccc(Cl)cc2Cl)c1=O)c1ccc(F)cc1F", "note": "[ARY-0572-001, ipfencarbazone]", "values": [{"measurement": "Plant HEIGHT, Mean", "setting": "[1]", "value": 27.2, "unit": "cm"}, {"measurement": "Plant HEIGHT, single plots", "setting": "[1]", "value": "25.0 cm and 30.8 cm and 25.7 cm"}, {"measurement": "Plant HEIGHT, Mean", "setting": "Soft wheat BRS327, 15 DA-A, 125 g ai/ha + Energic NIS 0.2 % v/v", "value": 27.6, "unit": "cm"}, {"measurement": "Plant HEIGHT, Mean", "setting": "[2]", "value": 32.0, "unit": "cm"}, {"measurement": "Plant HEIGHT, single plots", "setting": "[2]", "value": "31.0 cm and 32.3 cm and 32.7 cm"}, {"measurement": "Plant HEIGHT, Mean", "setting": "Soft wheat BRS327, 15 DA-A, 500 g ai/ha + Energic NIS 0.2 % v/v", "value": 24.4, "unit": "cm"}, {"measurement": "Plant HEIGHT, Mean", "setting": "[3]", "value": 17.3, "unit": "cm"}, {"measurement": "Plant HEIGHT, single plots", "setting": "[3]", "value": "23.3 cm and 11.7 cm and 17.0 cm"}, {"measurement": "Plant HEIGHT, Mean", "setting": "[4]", "value": 33.0, "unit": "cm"}, {"measurement": "Plant HEIGHT, single plots", "setting": "[4]", "value": "27.7 cm and 43.3 cm and 28.0 cm"}, {"measurement": "Plant HEIGHT, Mean", "setting": "[5]", "value": 35.0, "unit": "cm"}, {"measurement": "Plant HEIGHT, single plots", "setting": "[5]", "value": "49.0 cm and 24.7 cm and 31.3 cm"}, {"measurement": "Plant HEIGHT, Mean", "setting": "[6]", "value": 45.6, "unit": "cm"}, {"measurement": "Plant HEIGHT, single plots", "setting": "[6]", "value": "45.7 cm and 46.0 cm and 45.0 cm"}, {"measurement": "Plant HEIGHT, Mean", "setting": "Soft wheat BRS327, 28 DA-A, 500 g ai/ha + Energic NIS 0.2 % v/v", "value": 31.6, "unit": "cm"}, {"measurement": "Plant HEIGHT, Mean", "setting": "Soft wheat BRS327, 28 DA-A, 1000 g ai/ha + Energic NIS 0.2 % v/v", "value": 28.2, "unit": "cm"}, {"measurement": "Plant HEIGHT, Mean", "setting": "[7]", "value": 24.6, "unit": "cm"}, {"measurement": "Plant HEIGHT, single plots", "setting": "[7]", "value": "20.2 cm and 28.0 cm and 25.7 cm"}, {"measurement": "Plant HEIGHT, Mean", "setting": "Soft wheat Iguaçú, 15 DA-A, 125 g ai/ha + Energic NIS 0.2 % v/v", "value": 26.1, "unit": "cm"}, {"measurement": "Plant HEIGHT, Mean", "setting": "[8]", "value": 29.9, "unit": "cm"}, {"measurement": "Plant HEIGHT, single plots", "setting": "[8]", "value": "28.3 cm and 30.7 cm and 30.8 cm"}, {"measurement": "Plant HEIGHT, Mean", "setting": "[9]", "value": 23.8, "unit": "cm"}, {"measurement": "Plant HEIGHT, single plots", "setting": "[9]", "value": "30.3 cm and 18.7 cm and 22.3 cm"}, {"measurement": "Plant HEIGHT, Mean", "setting": "[10]", "value": 16.3, "unit": "cm"}, {"measurement": "Plant HEIGHT, single plots", "setting": "[10]", "value": "22.3 cm and 14.0 cm and 12.7 cm"}, {"measurement": "Plant HEIGHT, Mean", "setting": "[11]", "value": 29.2, "unit": "cm"}, {"measurement": "Plant HEIGHT, single plots", "setting": "[11]", "value": "24.0 cm and 36.3 cm and 27.3 cm"}, {"measurement": "Plant HEIGHT, Mean", "setting": "[12]", "value": 30.1, "unit": "cm"}, {"measurement": "Plant HEIGHT, single plots", "setting": "[12]", "value": "39.7 cm and 20.7 cm and 30.0 cm"}, {"measurement": "Plant HEIGHT, Mean", "setting": "[13]", "value": 43.3, "unit": "cm"}, {"measurement": "Plant HEIGHT, single plots", "setting": "[13]", "value": "39.7 cm and 50.3 cm and 40.0 cm"}, {"measurement": "Plant HEIGHT, Mean", "setting": "[14]", "value": 36.8, "unit": "cm"}, {"measurement": "Plant HEIGHT, single plots", "setting": "[14]", "value": "47.0 cm and 27.7 cm and 35.7 cm"}, {"measurement": "Plant HEIGHT, Mean", "setting": "Soft wheat Iguaçú, 28 DA-A, 1000 g ai/ha + Energic NIS 0.2 % v/v", "value": 18.7, "unit": "cm"}, {"measurement": "Plant HEIGHT, Mean", "setting": "Soft wheat Itaipú, 15 DA-A, 62.5 g ai/ha + Energic NIS 0.2 % v/v", "value": 23.8, "unit": "cm"}, {"measurement": "Plant HEIGHT, Mean", "setting": "[15]", "value": 25.5, "unit": "cm"}, {"measurement": "Plant HEIGHT, single plots", "setting": "[15]", "value": "33.3 cm and 19.8 cm and 23.3 cm"}, {"measurement": "Plant HEIGHT, Mean", "setting": "[16]", "value": 31.4, "unit": "cm"}, {"measurement": "Plant HEIGHT, single plots", "setting": "[16]", "value": "30.7 cm and 31.3 cm and 32.3 cm"}, {"measurement": "Plant HEIGHT, Mean", "setting": "Soft wheat Itaipú, 15 DA-A, 500 g ai/ha + Energic NIS 0.2 % v/v", "value": 22.2, "unit": "cm"}, {"measurement": "Plant HEIGHT, Mean", "setting": "[17]", "value": 15.7, "unit": "cm"}, {"measurement": "Plant HEIGHT, single plots", "setting": "[17]", "value": "22.0 cm and 13.0 cm and 12.0 cm"}, {"measurement": "Plant HEIGHT, Mean", "setting": "Soft wheat Itaipú, 28 DA-A, 62.5 g ai/ha + Energic NIS 0.2 % v/v", "value": 37.1, "unit": "cm"}, {"measurement": "Plant HEIGHT, Mean", "setting": "[18]", "value": 32.3, "unit": "cm"}, {"measurement": "Plant HEIGHT, single plots", "setting": "[18]", "value": "45.0 cm and 23.3 cm and 28.7 cm"}, {"measurement": "Plant HEIGHT, Mean", "setting": "[19]", "value": 47.8, "unit": "cm"}, {"measurement": "Plant HEIGHT, single plots", "setting": "[19]", "value": "45.0 cm and 46.7 cm and 51.7 cm"}, {"measurement": "Plant HEIGHT, Mean", "setting": "Soft wheat Itaipú, 28 DA-A, 500 g ai/ha + Energic NIS 0.2 % v/v", "value": 24.0, "unit": "cm"}, {"measurement": "Plant HEIGHT, Mean", "setting": "Soft wheat Itaipú, 28 DA-A, 1000 g ai/ha + Energic NIS 0.2 % v/v", "value": 18.4, "unit": "cm"}, {"measurement": "HEIGHT, percent of untreated check (APoC)", "setting": "62.5 g ai/ha, 15 DA-A", "value": "(145.5%)"}, {"measurement": "HEIGHT, treatment mean", "setting": "62.5 g ai/ha, 15 DA-A", "value": 27.2, "unit": "a cm"}, {"measurement": "HEIGHT, percent of untreated check (APoC)", "setting": "62.5 g ai/ha, 28 DA-A", "value": "(147.8%)"}, {"measurement": "HEIGHT, treatment mean", "setting": "62.5 g ai/ha, 28 DA-A", "value": 33.0, "unit": "a cm"}, {"measurement": "HEIGHT, percent of untreated check (APoC)", "setting": "125 g ai/ha, 15 DA-A", "value": "(147.6%)"}]}
